According to US9598389B2, “Dihydrobenzofuran derivatives as insecticidal compounds” (SYNGENTA PARTICIPATIONS AG, priority 2013, dated 2017):

Experiments:
Format in all cases: in vivo
[1] = system: Tetranychus urticae (Two-Spotted Spider Mite); assay: Tetranychus urticae bean leaf disc spray test; conditions: foliar, 192 h, application rate of 200 ppm, 8 days after infestation, read-out: mortality on mixed population (mobile stages)
Protocol: Tetranychus urticae (Two-Spotted Spider Mite):
Bean leaf discs on agar in 24-well microtiter plates were sprayed with aqueous test solutions prepared from 10,000 ppm DMSO stock solutions. After drying the leaf discs were infested with a mite population of mixed ages. The samples were assessed for mortality on mixed population (mobile stages) 8 days after infestation.

[2] = system: Thrips tabaci (Onion Thrips); assay: Thrips tabaci sunflower leaf disc spray test; conditions: foliar, 144 h, application rate of 200 ppm, population of mixed ages, 6 days after infestation
Protocol: Thrips tabaci (Onion Thrips):
Sunflower leaf discs were placed on agar in 24-well microtiter plates and sprayed with aqueous test solutions prepared from 10,000 ppm DMSO stock solutions. After drying the leaf discs were infested with a thrips population of mixed ages. The samples were assessed for mortality 6 days after infestation.

[3] = system: Heliothis virescens (Tobacco Budworm); assay: Heliothis virescens egg/larval test on artificial diet; conditions: application rate of 200 ppm, eggs 0-24 h old, 5 days after infestation, read-out: egg or larval mortality
Protocol: Heliothis virescens (Tobacco Budworm):
Eggs (0-24 h old) were placed in 24-well microtiter plates on artificial diet and treated with aqueous test solutions prepared from 10,000 ppm DMSO stock solutions by pipetting. The samples were assessed for egg and larval mortality 5 days after infestation.

[4] = system: Diabrotica balteata (Corn Root Worm); assay: Diabrotica balteata L2 larvae test on artificial diet; conditions: 120 h, application rate of 200 ppm, 5 days after infestation, read-out: effect in at least one of the two categories (mortality or growth inhibition)
Protocol: Diabrotica balteata (Corn Root Worm):
(§1) 24-well microtiter plates with artificial diet were treated with aqueous test solutions prepared from 10,000 ppm DMSO stock solutions by pipetting. After drying, the plates were infested with L2 larvae (6 to 10 per well). The samples were assessed for mortality and growth inhibition in comparison to untreated samples 5 days after infestation.

[5] = system: Plutella xylostella (Diamond Back Moth); assay: Plutella xylostella L2 larvae test on artificial diet; conditions: 120 h, application rate of 200 ppm, 5 days after infestation, read-out: effect in at least one of the two categories (mortality or growth inhibition)
Protocol: Plutella xylostella (Diamond Back Moth):
as §1, with “larvae (10” for “larvae (6”, “to 15” for “to 10”

[6] = system: Myzus persicae (Green Peach Aphid); assay: Myzus persicae sucrose solution feeding test; conditions: 120 h, test rate of 12 ppm, 5 days after infestation
Protocol: Myzus persicae (Green Peach Aphid)
Test compounds from 10,000 ppm DMSO stock solutions were applied by pipette into 24-well microtiter plates and mixed with sucrose solution. The plates were closed with a stretched Parafilm. A plastic stencil with 24 holes was placed onto the plate and infested pea seedlings were placed directly on the Parafilm. The infested plate was closed with a gel blotting paper and another plastic stencil and then turned upside down. The samples were assessed for mortality 5 days after infestation.

[7] = system: Spodoptera Littoralis (Egyptian Cotton Leaf Worm); assay: Spodoptera littoralis cotton leaf disc spray test; conditions: foliar, 72 h, application rate of 200 ppm, L1 larvae, 3 days after infestation, read-out: control (at least one of mortality, anti-feedant effect, growth inhibition)
Protocol: Spodoptera Littoralis (Egyptian Cotton Leaf Worm)
Cotton leaf discs were placed on agar in 24-well microtiter plates and sprayed with aqueous test solutions prepared from 10,000 ppm DMSO stock solutions. After drying the leaf discs were infested with five L1 larvae. The samples were assessed for mortality, anti-feedant effect, and growth inhibition in comparison to untreated samples 3 days after infestation. Control of Spodoptera littoralis by a test sample is when at least one of mortality, anti-feedant effect, and growth inhibition is higher than the untreated sample.

CCC(=O)Nc1cc(-c2ccc3c(c2)CC(c2cc(Cl)cc(Cl)c2)(C(F)(F)F)O3)ccc1C#N (stereo not shown) [Compound 198, N-[2-cyano-5-[2-(3,5-dichlorophenyl)-2-(trifluoromethyl)-3H-benzofuran-5-yl]phenyl]propanamide]
≥ 80%: mortality at 200 ppm [1] | mortality at 200 ppm [2] | mortality at 200 ppm [3] | percent effect (mortality or growth inhibition) at 200 ppm [4] | percent effect (mortality or growth inhibition) at 200 ppm [5] | mortality at 12 ppm [6] | percent control (mortality, anti-feedant effect or growth inhibition) at 200 ppm [7]

O=C(Nc1cccc(-c2ccc3c(c2)CC(c2cc(Cl)cc(Cl)c2)(C(F)(F)F)O3)c1F)C1CC1 (stereo not shown) [Compound 42, N-(3-(2-(3,5-dichlorophenyl)-2-(trifluoromethyl)-2,3-dihydrobenzofuran-5-yl)-2-fluorophenyl)cyclopropanecarboxamide]
≥ 80%: mortality at 200 ppm [3] | percent control (mortality, anti-feedant effect or growth inhibition) at 200 ppm [7]

O=C1CCCN1c1cccc(-c2ccc3c(c2)CC(c2cc(Cl)cc(Cl)c2)(C(F)(F)F)O3)c1 (stereo not shown) [Compound 254, 1-{3-[2-(3,5-Dichloro-phenyl)-2-trifluoromethyl-2,3-dihydro-benzofuran-5-yl]-phenyl}-pyrrolidin-2-one]
≥ 80%: percent effect (mortality or growth inhibition) at 200 ppm [5]

O=C(Nc1cc(-c2ccc3c(c2)CC(c2cc(Cl)cc(Cl)c2)(C(F)(F)F)O3)ccn1)C1CC1 (stereo not shown) [Compound 137, N-[4-[2-(3,5-dichlorophenyl)-2-(trifluoromethyl)-3H-benzofuran-5-yl]-2-pyridyl]cyclopropanecarboxamide]
≥ 80%: mortality at 200 ppm [3] | percent effect (mortality or growth inhibition) at 200 ppm [4] | percent effect (mortality or growth inhibition) at 200 ppm [5] | percent control (mortality, anti-feedant effect or growth inhibition) at 200 ppm [7]

CCC(=O)Nc1cccc(-c2ccc3c(c2)CC(c2cc(Cl)cc(Cl)c2)(C(F)(F)F)S3)c1 (stereo not shown) [Compound 268, N-[3-[2-(3,5-dichlorophenyl)-2-(trifluoromethyl)-3H-benzothiophen-5-yl]phenyl]propanamide]
≥ 80%: mortality at 200 ppm [2] | percent effect (mortality or growth inhibition) at 200 ppm [5] | mortality at 12 ppm [6] | percent control (mortality, anti-feedant effect or growth inhibition) at 200 ppm [7]

O=C(Nc1cccc(-c2ccc3c(c2)CC(c2cc(Cl)cc(Cl)c2)(C(F)(F)F)O3)c1)C1CC1 (stereo not shown) [Compound 141, N-(3-(2-(3,5-dichlorophenyl)-2-(trifluoromethyl)-2,3-dihydrobenzofuran-5-yl)phenyl)cyclopropanecarboxamide]
≥ 80%: mortality at 200 ppm [2] | mortality at 200 ppm [3] | percent effect (mortality or growth inhibition) at 200 ppm [4] | percent effect (mortality or growth inhibition) at 200 ppm [5] | mortality at 12 ppm [6] | percent control (mortality, anti-feedant effect or growth inhibition) at 200 ppm [7]

CCC(=O)Nc1cc(-c2ccc3c(c2)CC(c2cc(Cl)cc(Cl)c2)(C(F)(F)F)S3)ccc1C#N (stereo not shown) [Compound 267, N-{2-Cyano-5-[2-(3,5-dichloro-phenyl)-2-trifluoromethyl-2,3-dihydro-benzo[b]thiophen-5-yl]-phenyl}-propionamide]
≥ 80%: percent effect (mortality or growth inhibition) at 200 ppm [5] | percent control (mortality, anti-feedant effect or growth inhibition) at 200 ppm [7]

O=C(Nc1cccc(-c2ccc3c(c2)CC(c2cccc(C(F)(F)F)c2)(C(F)(F)F)O3)c1)C1CC1 (stereo not shown) [Compound 182, N-(3-(2-(trifluoromethyl)-2-(3-(trifluoromethyl)phenyl)-2,3-dihydrobenzofuran-5-yl)phenyl)cyclopropanecarboxamide]
≥ 80%: mortality at 200 ppm [3] | percent effect (mortality or growth inhibition) at 200 ppm [5] | percent control (mortality, anti-feedant effect or growth inhibition) at 200 ppm [7]

CCC(=O)Nc1cccc(-c2ccc3c(c2)CC(c2cc(Cl)cc(Cl)c2)(C(F)(F)F)C3=O)c1 (stereo not shown) [Compound 269, N-{3-[2-(3,5-Dichloro-phenyl)-1-oxo-2-trifluoromethyl-indan-5-yl]-phenyl}-propionamide]
≥ 80%: mortality at 200 ppm [2] | mortality at 200 ppm [3] | percent effect (mortality or growth inhibition) at 200 ppm [4] | percent effect (mortality or growth inhibition) at 200 ppm [5] | percent control (mortality, anti-feedant effect or growth inhibition) at 200 ppm [7]

N#Cc1ccc(-c2ccc3c(c2)CC(c2cc(Cl)cc(Cl)c2)(C(F)(F)F)O3)cc1N1CCCC1=O (stereo not shown) [Compound 261, 4-[2-(3,5-Dichloro-phenyl)-2-trifluoromethyl-2,3-dihydro-benzofuran-5-yl]-2-(2-oxo-pyrrolidin-1-yl)-benzonitrile]
≥ 80%: percent effect (mortality or growth inhibition) at 200 ppm [5] | percent control (mortality, anti-feedant effect or growth inhibition) at 200 ppm [7]

CCC(=O)Nc1cccc(-c2ccc3c(c2)CC(c2cc(Cl)cc(Cl)c2)(C(F)(F)F)C3O)c1 (stereo not shown) [Compound 270, N-{3-[2-(3,5-Dichloro-phenyl)-1-hydroxy-2-trifluoromethyl-indan-5-yl]-phenyl}-propionamide]
≥ 80%: mortality at 200 ppm [3] | percent effect (mortality or growth inhibition) at 200 ppm [4] | percent effect (mortality or growth inhibition) at 200 ppm [5] | percent control (mortality, anti-feedant effect or growth inhibition) at 200 ppm [7]

CCC(=O)Nc1ccnc(-c2cc3c(cc2Cl)OC(c2cc(Cl)cc(Cl)c2)(C(F)(F)F)C3)c1 (stereo not shown) [Compound 136, N-[2-[6-chloro-2-(3,5-dichlorophenyl)-2-(trifluoromethyl)-3H-benzofuran-5-yl]-4-pyridyl]propanamide]
≥ 80%: mortality at 200 ppm [3] | percent effect (mortality or growth inhibition) at 200 ppm [5] | percent control (mortality, anti-feedant effect or growth inhibition) at 200 ppm [7]
